The source made the active and inactive calls. The rule behind the calls is not given here.

For orientation: inhibition means the relative decrease from the control value, in per cent. Low values mean a response near the control, high ones a response far below the control.

Data set [1] can be described thus: Metal chelating activity of the compound assessed as Cu2+ complex formation at 1 x 10' -3 M by spectrometry. The class given is physicochemical. The conditions noted are these: 1000 µM.
For data set [2], the species on record is Rattus norvegicus. Briefly: Agonist activity at adrenergic receptor in rat vas deferens at 0.165 ug/ml. The class given is tissue-based.
For data set [3], the system named is Rattus norvegicus. Description: Increase blood pressure in rat at 1 mg/kg. More on the design: dose 1 mg/kg. The class given is functional, organism-based.
In data set [4] the test system is Rattus norvegicus. Briefly: Decrease in blood pressure in rat at 0.150 mg/kg. Format: functional, organism-based. More on the design: dose 0.15 mg/kg.
Data set [5] deals with Rattus norvegicus. Briefly: Decrease in blood pressure in rat at 120 mg/kg. Format: functional, organism-based. The arrangement: dose 120 mg/kg.
For data set [6], the species on record is Rattus norvegicus. Description: Agonist activity at adrenergic receptor in rat vas deferens at 13 ug/ml. Format: tissue-based.
Data set [7] is filed under the species Rattus norvegicus. Description: Potentiation of l-norepinephrine-induced adrenergic receptor activity in rat vas deferens assessed as contraction. The class given is tissue-based.
The target of data set [8] is T1, Catechol O-methyltransferase (Homo sapiens) (UniProt P21964).
T1 sequence (whole entry): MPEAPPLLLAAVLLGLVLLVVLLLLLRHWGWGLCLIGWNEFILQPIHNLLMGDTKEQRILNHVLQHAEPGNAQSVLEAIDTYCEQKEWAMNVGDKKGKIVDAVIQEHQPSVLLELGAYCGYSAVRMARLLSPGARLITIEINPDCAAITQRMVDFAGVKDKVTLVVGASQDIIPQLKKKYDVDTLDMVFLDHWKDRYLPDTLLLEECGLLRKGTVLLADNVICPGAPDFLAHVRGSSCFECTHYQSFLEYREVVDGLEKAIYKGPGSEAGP
Description: Activity of catechol-O-methyltransferase (unknown origin).

Data set [9] relates to Rattus norvegicus. Briefly: Increase blood pressure in rat at 100 mg/kg. Format: functional, organism-based. More on the design: dose 100 mg/kg.
Data set [10] deals with T1, Catechol O-methyltransferase (Homo sapiens). Briefly: Inhibition of catechol-O-methyltransferase (unknown origin)-mediated l-norepinephrine methylation. The conditions noted are these: concentration not given here.

In the case of `Br.NC[C@H](O)c1ccc(O)c(O)c1`, the outcome in data set [1] was Active.

With `NC[C@@H](O)c1ccc(O)c(O)c1`, the result in the data set listed under Rattus norvegicus [2] and in the data set on Rattus norvegicus [3] was Active.

Take `CC(C)NCC(O)c1ccc(O)c(O)c1` (racemic): in the data set on Rattus norvegicus [4], the outcome was Active.

For the molecule `Oc1ccccc1O` [CATECHOL], the result in data set [1] was Active.

In the case of `CC(C)NCC(O)c1cccc(O)c1O` (configuration not stated), the outcome in the data set with Rattus norvegicus [5] was Active.

As to `Br.NCC(O)c1cccc(O)c1O` (configuration not stated), the result in the data set listed under Rattus norvegicus [6], in the data set filed under Rattus norvegicus [7] and with Rattus norvegicus [9] was Active. Further, the Activity entry was “Active” in [1] and < 5% in [8]. Also, the inhibition in data set [10] came out at 25%.

For the origin of these results see ChEMBL document CHEMBL3271950, “2,3-Dihydroxyphenethanolamine as an adrenergic agent” (J Med Chem, 1976).
